Test results from paper PMC8162438, “Cancer cell-selective modulation of mitochondrial respiration and metabolism by potent organogold(III) dithiocarbamates” (Chemical Science, 2020).

Tested on: MDA-MB-231
Assay: Immunoblotting of apoptosis proteins
Assay type: cell-based
Excerpt: Apoptosis is a common cell death pathway for chemotherapeutics which can be characterized by distinct morphological features and biochemical mechanisms.[88,89] Apoptosis occurs normally in healthy cells to maintain a healthy population of cells during aging or development of tissues. Some transition metal-based drugs can trigger apoptosis due to […] of p53 dependant pathway (a tumour suppressor gene).[90,91] Populations of apoptotic cells can be determined by containing cells with Annexin V and PI.[92,93] Cells undergoing apoptosis contain ample amount of phosphatidylserine (PS) which can be bound by Annexin V. The Annexin is then labelled with FITC, a green fluorogenic dye which can be visualized by fluorescence activated cell sorting (FACS). […]
positive control. When ready for analysis, the media were removed and the wells washed with 5 mL of PBS. […] The cells were resuspended in 2 mL of fresh media, counted, and reconstituted to a concentration of 1 x 10^5 cells/mL. […]
Compound 2a was prepared as a stock in DMSO and added to the respective wells at the specified concentrations of 0.1, 1, and 10 µM and treated for 12 h. […] The samples were cooled and stored at −20 °C until ready for use. […] Immuno complexes were detected with the ECL detection reagent (BioRad) and analyzed using a BioRad imager with a chemiluminescence filter. […]

## C[N+](C)=C1[S][Au-2]2([S]1)[c]1ccccc1Cc1cccc[n+]12.F[P-](F)(F)(F)(F)F (centres unmarked) [2a]
MDA-MB-231, 0.1, 1, 10 µM, 12 h
  Cleaved PARP expression (immunoblot): unaltered protein expression
MDA-MB-231, concentration dependent (0.1, 1, 10 µM, 12 h)
  Caspase 3 and cleaved caspase 3 expression (immunoblot): upregulated
